Source: PubChem BioAssay AID1963976 (Molecular Pharmacology Branch, DTP, NCI, 2024)
Values joined by “and” are separate entries in the source; they are usually repeats but may differ in a detail not shown here. Identical values can stand only once.

System: 435261-313-R-J1-PDC tumor spheroid viability
Test: Anticancer human tumor 435261-313-R-J1-PDC patient-derived colon adenocarcinoma cell line growth inhibition [PI3K]
Settings: spheroids with HUVEC and MSC; for viability, T/C: stronger effect = lower value; for IC50: curve of compound
Description: Combinatorial screen of targeted agents with the PI3K inhibitors inavolisib, alpelisib, duvelisib, and copanlisib in multi-cell type tumor spheroids
A high-throughput screen of multi-cell type tumor spheroids was designed to identify active combinations of targeted small molecules and PI3K pathway inhibitors. Complex spheroids include a stromal component modeled by human endothelial cells (HUVEC) and fibroblasts modeled by human mesenchymal stem cells (MSCs). The concentration ranges selected for each drug and investigational agent were based upon clinically achievable concentrations if the clinical Cmax of the agent was known.
Compounds. The drugs and investigational agents: inavolisib (NSC800729), alpelisib (NSC765974), duvelisib (NSC772469), copanlisib (NSC816437), ipatasertib (NSC767898), afuresertib (NSC778305), talazoparib (NSC767125), sapanisertib (NSC764658), selumetinib (NSC741078), tovorafenib (DAY101, NSC766906), vemurafenib (NSC761431), ravoxertinib (NSC781343), sotorasib (NSC818433), MRTX1133 (NSC 836407), abemaciclib (NSC 768073), palbociclib (NSC758247), venetoclax (NSC 766270), SY5609 (NSC837396), enzalutamide (NSC755605), and darolutamide (NSC825331), were obtained from the National Cancer Institute (NCI) Developmental Therapeutics Program Chemical Repository. The FDA-approved anticancer drug set is available from the NCI Developmental Therapeutics Program. […] The stock solutions were prepared in dimethyl sulfoxide (DMSO, Sigma-Aldrich, St. Louis, MO, cat. D2650) at 800-fold the tested concentration and stored at -70 degrees C prior to their use. All drugs and investigational agents were tested over a range starting from a high concentration at or near the clinical Cmax and decreasing in half-log increments. If the clinical Cmax for an agent had not been determined, the highest concentration tested was 10 microM.
Cell Culture. All cells were maintained in an incubator at 37 degrees C and 5% CO2 with 95% humidity. The PDC lines were cultured according to standard operating procedures established by the NCI PDMR (https://pdmr.cancer.gov/sops/default.htm). All PDCs were thawed and cultured in Matrigel-coated flasks prepared with a working solution of 1X Ham's F-12 nutrient mix, without supplementation (Invitrogen, Waltham, MA, cat. 11765054), 100 U/mL penicillin-streptomycin (Invitrogen, cat. 15140122), and 2.5% Matrigel (Corning Inc., Corning, NY, cat. 354248) for the first three passages. The 354836-022-R-J1-PDC, 475296-252-R-J1-PDC, and 997726-040-R-J2-PDC lines were cultured in 6A media, which includes advanced DMEM/F-12 (Thermo Fisher Scientific, cat. 12634028), 10 mM HEPES (Thermo Fisher Scientific, cat. 15630080), 1X GlutaMAX supplement (Thermo Fisher Scientific, cat. 35050061), 0.1 mg/mL primocin (InvivoGen, San Diego, CA, cat. ant-pm-2), 10% defined fetal bovine serum, heat inactivated (HyClone Laboratories Inc., Logan, UT, cat. SH30070.03HI), 50% L-WRN conditioned media (ATCC, cat. CRL-3276), 1.25 mM N-Acetyl-L-cysteine (Sigma-Aldrich, cat. A9165), 10 mM nicotinamide (Sigma-Aldrich, cat. N0636), 1X B-27 supplement (Thermo Fisher Scientific, cat. 17504044), 1X N-2 supplement (Thermo Fisher Scientific, cat. 17502048), and 10 microM Y-27632 dihydrochloride (Tocris Bioscience, Bristol, United Kingdom, cat. 1254). The 624824-186-R-J2-PDC line was cultured in 6C/Colon 1B media, which includes all 6A media components plus 50 ng/mL human EGF recombinant protein (Thermo Fisher Scientific, cat. PHG0311). […]

Row | Structure (SMILES) | IC50 | viability, T/C (compound 0.0316 µM) | viability, T/C (compound 0.1 µM) | viability, T/C (compound 0.316 µM) | viability, T/C (compound 1 µM) | viability, T/C (compound 3.16 µM) | viability, T/C (compound 10 µM) | viability, T/C (compound 0.000316 µM) | viability, T/C (compound 0.001 µM) | viability, T/C (compound 0.00316 µM) | viability, T/C (compound 0.01 µM)
1 | CC(C)NCC(C(=O)N1CCN(c2ncnc3c2C(C)CC3O)CC1)c1ccc(Cl)cc1 (stereo unspecified) | 3.56 µM and 0.965 µM and 5.92 µM | 76.4% and 94.8% and 95.1% | 90.5% and 77% and 73.2% | 95.1% and 85.8% and 97.9% | 57.7% and 48.9% and 79% | 58.6% and 52.4% and 76.3% | 20.2% and 36.6% and 29% | – | – | – | –
2 | CC(C)n1nc(-c2ccc3oc(N)nc3c2)c2c(N)ncnc21 | 0.038 µM and 0.0144 µM | 60.8% and 46.7% | 18.7% and 12.7% | – | – | – | – | 75.7% and 66.3% | 119% and 65.3% | 86.6% and 58.6% | 67.3% and 48.3%
3 | CC(Cn1ccc(-c2ccc(C#N)c(Cl)c2)n1)NC(=O)c1cc(C(C)O)[nH]n1 (stereo unspecified) | > 10 µM | 97.2% and 88.6% and 70.7% | 108% and 96.9% and 109% | 130% and 117% and 107% | 79.9% and 113% and 70.2% | 110% and 105% and 108% | 120% and 102% and 99.3% | – | – | – | –
4 | CC(Nc1ccc2c(c1)OCCn1cc(N3C(=O)OCC3C(F)F)nc1-2)C(N)=O (stereo unspecified) | – | – | 31.2% [middle of 7 runs] | 23.1% [middle of 7 runs] | 20.4% [middle of 7 runs] | – | – | – | – | – | –
5 | CC(Nc1ncnc2nc[nH]c12)c1cc2cccc(Cl)c2c(=O)n1-c1ccccc1 (stereo unspecified) | – | – | – | – | 77.1% [middle of 7 runs] | 70.9% [middle of 7 runs] | – | – | – | – | –
6 | CC1(C)CCC(CN2CCN(c3ccc(C(=O)NS(=O)(=O)c4ccc(NCC5CCOCC5)c([N+](=O)[O-])c4)c(Oc4cnc5[nH]ccc5c4)c3)CC2)=C(c2ccc(Cl)cc2)C1 | – | – | – | – | – | 107% [middle of 4 runs] | – | – | – | – | –
7 | CC1(C)CCC(Nc2ncc(C(F)(F)F)c(-c3c[nH]c4c(P(C)(C)=O)c(C#N)ccc34)n2)CN1 (stereo unspecified) | – | 68.8% [middle of 4 runs] | 59.7% [middle of 4 runs] | – | 54.3% [middle of 4 runs] | 51.3% [middle of 4 runs] | 1.48% [middle of 4 runs] | – | – | – | –

Further lines, with some results ahead:

Row | IC50 | Structure (SMILES) | viability, T/C (compound 0.0316 µM) | viability, T/C (compound 0.1 µM) | viability, T/C (compound 0.316 µM) | viability, T/C (compound 1 µM) | viability, T/C (compound 3.16 µM) | viability, T/C (compound 10 µM) | viability, T/C (compound 0.000316 µM) | viability, T/C (compound 0.001 µM) | viability, T/C (compound 0.00316 µM) | viability, T/C (compound 0.01 µM)
8 | 5.36 µM and 5.46 µM and 5.56 µM | C#Cc1c(F)ccc2cc(O)cc(-c3ncc4c(N5CC6CCC(C5)N6)nc(OCC56CCCN5CC(F)C6)nc4c3F)c12 (stereo unspecified) | 89.8% and 97.7% and 83.1% | 91.7% and 82.7% and 95.5% | 124% and 84% and 113% | 95.2% and 62.6% and 64% | 61.5% and 78.3% and 73.5% | 36.6% and 30.7% and 31.1% | – | – | – | –
9 | > 10 µM | C=CC(=O)N1CCN(c2nc(=O)n(-c3c(C)ccnc3C(C)C)c3nc(-c4c(O)cccc4F)c(F)cc23)C(C)C1 (stereo unspecified) | 92% [middle of 4 runs] | – | 109% [middle of 4 runs] | – | 137% and 124% (2×) and 123% | 109% [middle of 4 runs] | – | – | – | –
10 | > 0.1 µM | CC(=O)c1c(C)c2cnc(Nc3ccc(N4CCNCC4)cn3)nc2n(C2CCCC2)c1=O | 99.9% and 90.4% and 103% | 68.8% and 77.6% and 68.9% | – | – | – | – | 69.4% and 92% and 91.1% | 92.5% and 97.7% and 88.2% | 86.3% and 105% and 87% | 105% and 93.1% and 75.4%
